From patent US10376530B2, “Pharmaceutical composition for preventing or treating gleevec-resistant leukemia containing ginsenoside F1 or ginsenoside Rg3 as an active ingredient” (INTELLIGENT SYNTHETIC BIOLOGY CENTER, priority 2015, dated 2019)

Legend:
Format in all cases: cell-based, human
NK cells [1] = assay: CD107a level on NK cells in PBMC stimulated with K562 target cells, flow cytometry (Example 1); details: PBMC (NK cell purity 95% or higher) treated with ginsenoside, then K562 target cells; FIG. 1
Description: To discover ginsenosides which can affect the cell-killing activity of NK cells, peripheral blood mononuclear cells (PBMC) separated from the blood were treated with 15 different kinds of (C-K, F2, PPD, Rb1, Rb2, Rc, Rd, Rg3, Rh2, F1, PPT, Re, Rg1, Rg2, and Rh1) ginsenosides, and then, the level of CD107a, which is a marker protein representing cell-killing activity and expressed on NK cells, was measured by flow cytometry (FIG. 1).
In particular, for the PBMC, those selected as follows were used. That is, the collected blood samples were transferred into Vacutainer Cell Preparation tubes (sodium heparin; BD Biosciences), centrifuged to recover a buffy coat, lymphocytes and monocyte band, and the recovered buffy coat was washed with PBS and applied to the human NK cell negative selection kit (Miltenyl Biotech) to isolate […].
Additionally, the CD107a level was measured as follows. […] Then, the NK cells were isolated by performing flow cytometry analysis using anti-CD3 antibody and anti-CD56 antibody, and the NK cells were immunostained using anti-CD107a antibody and the level of CD107a was measured.

NK cells [2] = assay: Intracellular IFN-γ expression by NK cells in PBMC stimulated with mutants of KCL-22 cells, flow cytometry (Example 2); details: PBMC treated with ginsenoside, stimulated with equal number of mutants of KCL-22 cells, Brefeldin A; FIG. 2
Description: The 7 different kinds of ginsenosides discovered in Example 1 were treated and those ginsenosides which increased the expression level of the immune-stimulating factor (IFN-γ) by NK cells were selected (FIG. 2). In particular, the expression level of IFN-γ was measured as follows. That is, the PBMC samples isolated in Example 1 were treated with each ginsenoside, stimulated by treating with the equal number of target cells (mutants of KCL-22 cells), and then treated with Brefeldin A (GolgiPlug; BD Biosciences). Thereafter, a flow cytometry analysis was performed using fluochrome-conjugated anti-CD3 antibody and anti-CD56 antibody to identify NK cells present in PBMC, and then treated with Cytofix/Cytoperm (BD Biosicences) for perforation, and immunostained with fluochrome-conjugated anti-IFN-γ antibody to measure the intracellular level of IFN-γ(FIG. 2).

NK cells [3] = assay: CD107a level on primary NK cells incubated with mutants of KCL-22 cells (Example 3); details: NK cells isolated from PBMC, incubated with mutants of KCL-22 cells (Gleevec-resistant leukemia cells); DMSO control; FIG. 3
Description: An attempt was made to select ginsenosides which induce the increase of the CD107a level on primary NK cells among the 4 different kinds of ginsenosides (Rg3, Rh2, F1, and Rg1) selected in Example 2.
Specifically, the NK cells isolated from the PBMC were activated by treating with the 4 different kinds of ginsenosides, then incubated with mutants of KCL-22 cells (i.e., Gleevec-resistant leukemia cells), and the level of CD107a on NK cells was measured and compared (FIG. 3). In particular, NK cells treated with DMSO, instead of ginsenosides, were used as a control group.

NK cells [4] = assay: Concentration-dependent change of CD107a level on NK cells (Example 4); details: NK cells isolated from PBMC, 5 μM to 20 μM; DMSO control; FIGS. 4A and 4B
Description: NK cells isolated from PBMC were treated with ginsenoside F1 (which increases the selected CD107a level to the highest level) and Rg3 (which increases the selected CD107a level to the 2nd highest level), selected from Example 3, at various concentrations (5 μM to 20 μM), and the change in the CD107a level was measured (FIGS. 4A and 4B). In particular, NK cells treated with DMSO, instead of ginsenosides, were used as a control group.

[5] = system: Gleevec-resistant mutants of KCL-22 cells; assay: Cell-killing activity of NK cells against europium-labeled target cells (Example 5); details: E:T ratios 0.625:1, 1.25:1, 2.5:1, 5:1; DMSO control; FIGS. 5A and 5B
Description: The NK cells isolated in Example 1 was treated with ginsenoside F1 or ginsenoside Rg3, and incubated with target cells (Gleevec-resistant mutants of KCL-22 cells) labeled with an europium fluorescent dye at various E:T ratios (the ratio between the number of NK cells:the number of target cells=0.625:1, 1.25:1, 2.5:1, or 5:1), and thereby breaking down the target cells with the NK cells activated by the ginsenoside, and the europium fluorescent dye labeled to the target cells was released as a reaction solution. Upon completion of the reaction, the level of the europium fluorescent dye contained in the reaction solution was measured, and the cell-killing activity of the NK cells was compared (FIGS. 5A and 5B). In particular, NK cells treated with DMSO, instead of ginsenosides, were used as control group.

## CC(C)=CCC[C@](C)(O[C@@H]1O[C@H](CO)[C@@H](O)[C@H](O)[C@H]1O)[C@H]1CC[C@]2(C)[C@@H]1[C@H](O)C[C@@H]1[C@@]3(C)CC[C@H](O[C@@H]4O[C@H](CO)[C@@H](O)[C@H](O)[C@H]4O)C(C)(C)[C@@H]3CC[C@]12C [F2]
NK cells [1]
  level of CD107a expression on NK cells: increase the level of CD107a expression on NK cells

## CC(C)=CCC[C@](C)(O[C@@H]1O[C@H](CO[C@@H]2O[C@H](CO)[C@@H](O)[C@H](O)[C@H]2O)[C@@H](O)[C@H](O)[C@H]1O)[C@H]1CC[C@]2(C)[C@@H]1[C@H](O)C[C@@H]1[C@@]3(C)CC[C@H](O[C@@H]4O[C@H](CO)[C@@H](O)[C@H](O)[C@H]4O[C@@H]4O[C@H](CO)[C@@H](O)[C@H](O)[C@H]4O)C(C)(C)[C@@H]3CC[C@]12C [Rb1]
NK cells [1]
  level of CD107a expression on NK cells: increase the level of CD107a expression on NK cells

## CC(C)=CCC[C@](C)(O[C@@H]1O[C@H](CO)[C@@H](O)[C@H](O)[C@H]1O)[C@H]1CC[C@]2(C)[C@@H]1[C@H](O)C[C@@H]1[C@@]3(C)CC[C@H](O)C(C)(C)[C@@H]3[C@@H](O[C@@H]3O[C@H](CO)[C@@H](O)[C@H](O)[C@H]3O)C[C@]12C [Rg1]
NK cells [1]
  level of CD107a expression on NK cells: increase the level of CD107a expression on NK cells
NK cells [2]
  expression level of IFN-γ by NK cells: increased

## CC(C)=CCC[C@](C)(O)[C@H]1CC[C@]2(C)[C@@H]1[C@H](O)C[C@@H]1[C@@]3(C)CC[C@H](O)C(C)(C)[C@@H]3[C@@H](O[C@@H]3O[C@H](CO)[C@@H](O)[C@H](O)[C@H]3O[C@@H]3O[C@@H](C)[C@H](O)[C@@H](O)[C@H]3O)C[C@]12C [Rg2]
NK cells [1]
  level of CD107a expression on NK cells: increase the level of CD107a expression on NK cells

## CC(C)=CCC[C@](C)(O)[C@H]1CC[C@]2(C)[C@@H]1[C@H](O)C[C@@H]1[C@@]3(C)CC[C@H](O[C@@H]4O[C@H](CO)[C@@H](O)[C@H](O)[C@H]4O)C(C)(C)[C@@H]3CC[C@]12C [Rh2]
NK cells [1]
  level of CD107a expression on NK cells: increase the level of CD107a expression on NK cells
NK cells [2]
  expression level of IFN-γ by NK cells: increased

## CC(C)=CCC[C@](C)(O)[C@H]1CC[C@]2(C)[C@@H]1[C@H](O)C[C@@H]1[C@@]3(C)CC[C@H](O[C@@H]4O[C@H](CO)[C@@H](O)[C@H](O)[C@H]4O[C@@H]4O[C@H](CO)[C@@H](O)[C@H](O)[C@H]4O)C(C)(C)[C@@H]3CC[C@]12C [ginsenoside Rg3, 20(S)-protopanaxadiol-3-0-β-D-glucopyranosyl(1,2)-β-D-glucopyranoside]
NK cells [1]
  level of CD107a expression on NK cells: increase the level of CD107a expression on NK cells
NK cells [2]
  expression level of IFN-γ by NK cells: increased
NK cells [3]
  level of CD107a on primary NK cells (rank among the 4 ginsenosides): 2nd highest
NK cells [4]
  change in the CD107a level on NK cells by concentration: increase the expression levels of CD107a on NK cells in a concentration-dependent manner
[5]
  cell-killing activity of NK cells (europium fluorescent dye release): promote the cell-killing activity of NK cells against mutants of KCL-22 cells
